Values quoted from earlier work as cited in US9682109B2, “Antiviral resistance mutants and applications thereof” (ABL SA, priority 2005, dated 2017).
Counter-ions that a name gives are not always drawn.

Legend:
[1] = test system: wild-type and lamivudine-resistant strains of HBV
HBV [2] = settings: 30 mg daily dose, over 12 weeks, phase II studies (Heathcote et al 1998)
HBV [3] = test system: HBV

SMILES	clinical activity [1]	mean decrease in viremia (HBV [2]) [log10]	inhibitor of HBV replication (HBV replication)	antiviral activity against HBV (HBV [3])	antiviral activity against HIV (HIV)
CC(C)(C)C(=O)OCOP(=O)(COCCn1cnc2c(N)ncnc21)OCOC(=O)C(C)(C)C [ADV, adefovir dipivoxil]	demonstrated clinical activity	4	potent inhibitor	–	–
Nc1nc(=O)n([C@@H]2CS[C@H](CO)O2)cc1F [FTC, (−)-β-L-2′-3′-dideoxy-5-fluoro-3′-thiacydidine]	–	–	–	activity	activity
CC(C)OC(=O)OCOP(=O)(CO[C@H](C)Cn1cnc2c(N)ncnc21)OCOC(=O)OC(C)C [TFV, tenofovir disoproxil fumarate]	–	–	–	antiviral activity	antiviral activity
